How the values were obtained:
LTC4 = assay: In vivo murine zymosan peritonitis assay, LTC4 (lipoxygenase pathway); set-up: species or system mouse (male CD-1); details: p.o., mouse, standard drugs
Method: The compounds of the invention are evaluated for their ability to inhibit the lipoxygenase and/or cyclooxygenase pathways of arachidonic acid metabolism in the in vivo murine zymosan peritonitis assay.
(§1) This assay is carried out as follows:
Male CD-1 mice (8 weeks old) are placed in plastic boxes in groups of six. Animals are injected with 1 ml i.p. of either 1% zymosan in pyrogen free 0.9% saline or saline (unstimulated control). Compounds are dosed orally 1 hour prior to zymosan injection. Twenty minutes after zymosan injection, the mice are asphyxiated by CO2 inhalation and the peritoneal cavity is lavaged with 2 ml ice cold Hanks Balanced Salt Solution (HBSS) without CaCl2, MgSO4 ·7H2 O and MgCL2 ·6H2 O. Peritoneal lavage fluid from each mouse is removed by syringe and placed in 5 ml plastic test tubes put on ice and volume is noted. Preparation of samples for evaluation by ELISA is as follows: Samples are centrifuged at 800×g for 15 minutes; 1 ml of the supernatant is added to 8 ml ice cold methanol and kept at -70° C. overnight to precipitate protein; and samples are then centrifuged at 800×g for 15 minutes, followed by a drying procedure in a Savant speed vac concentrator. The samples are reconstituted with 1 ml ice cold ELISA buffer and stored at -70° C. until assayed. The assay for eicosanoids (LTC4 and 6-keto-PGF1α) is performed according to conventional ELISA procedures.
Compounds to be tested orally are suspended in 0.5% Tween 80. Compounds to be tested intraperitoneally are suspended in 0.5% methylcellulose in 0.9% saline.
The total metabolite level in lavage fluid/mouse is calculated and the significance is determined by a one-way analysis of variance with LSD comparisons to control (p≤0.05). Drug effects are expressed as a percent change from control values.

[1] = test system: LTB4 synthesis by rat glycogen-elicited polymorphonuclear leukocytes (lipoxygenase); assay: Inhibition of LTB4 synthesis by rat glycogen-elicited polymorphonuclear leukocytes (PMN); assay type: cell-based, rat (female Wistar); details: Leukocyte, A 23187 and exogenous AA; for inhibition at 0.5 µM: negative value denotes potentiation
Excerpt: This is especially true with respect to 5,12-diHETE, which is also denoted as LTB4 [see Ford-Hitchinson, J. Roy. Soc. Med., 74, 831 (1981)]. Compounds which inhibit the PLA2 -mediated release of arachidonic acid thereby effectively prevent the oxidation of arachidonic acid to the various leukotriene products via the lipoxygenase cascade. Accordingly, the specificity of action of PLA2 inhibitors can be determined by the activity of test compounds in this assay, which measures the ability of compounds to inhibit the synthesis of LTB4 by rat glycogen-elicited polymorphonuclear leukocytes (PMN) in the presence of exogenous substrate.
(§2) The assay is carried out as follows:
(§3) Rat polymorphonuclear leukocytes (PMNs) are obtained from female Wistar rats (150-200 g) which receive an injection of 6% glycogen (10 ml i.p.). Rats are sacrificed 18-24 hours post injection by CO2 asphyxiation and the elicited cells are harvested by peritoneal lavage using physiological saline (0.9% NaCl). The exudate is centrifuged at 400×g for 10 minutes. The supernatant fluid is discarded and the cell pellet is resuspended to a concentration of 2.0×10^7 cells/ml in HBSS containing Ca^++ and Mg^++ and 10 μM L-cysteine.
(§4) To 1 ml aliquots of cell suspension, test drugs or vehicle are added, then preincubated at 37° C. for 10 minutes. A 23187 (1 μM), [^3 H]-AA (3.0 μCi/ml) and unlabeled AA (1 μM) are then added and the samples are further incubated for 10 minutes. The reaction is terminated by centrifugation and pelleting cells. Supernatants are then analyzed by HPLC analysis on a 15 cm×4.6 mm ID supelcosil LC-18 (Supelco)(3M) column, using a two solvent system at a flow rate of 1.4 ml total flow as follows:
Gradient: (system is equillibrated with Solvent A)
(§5) Percent solvent changes are accomplished in a linear fashion.
(§6) Injections: 150 μl of each supernatant is injected directly onto column and ^3 H arachidonic acid metabolites are monitored using an on-line radioactivity detector (Ramona, IN/US, Fairfield, NJ).
(§7) Standards: 10^4 -2.0×10^4 dpm of eicosanoids of interest are injected in 90 μl EtOH cocktail.
(§8) Co-chromatography with standard [^3 H] leukotriene B4 (LTB4) in medium of stimulated PMN exposed to drug is compared to that found in medium of stimulated cells exposed to no drug, generating percent inhibition.
(§9) Results are expressed as percent inhibition at a given compound dose or as an IC50 value.

[2] = test system: TxB2 synthesis (cyclooxygenase) by rat glycogen-elicited polymorphonuclear leukocytes; assay: Inhibition of TxB2 synthesis by rat glycogen-elicited PMN (cyclooxygenase); assay type: cell-based, rat (female Wistar); details: Rattus norvegicus, Leukocyte; for inhibition at 0.5 µM: negative values denote potentiation of cyclooxygenase
Method: as §3, §4, §5, §6, §7, §8, §9
In this assay, the procedure of Example 19 is carried out as described. However, in order to determine cyclooxygenase activity, the samples are co-chromatographed with authentic reference [^3 H]-TxB2.
The results are calculated as in Example 19 and presented below: […]

human platelet PLA2 = molecular target: T1, human platelet PLA2 (Homo sapiens, UniProt P14555); assay: In vitro isolated phospholipase A2 assay, human platelet PLA2 (arachidonic acid release from 3H-AA E. coli substrate); assay type: biochemical; details: 10 μM; human platelet; negative values denote potentiation; read-out: % Inhibition at 10 μM HP
T1 construct: Semipurified human platelet acid extract PLA2; from tissue; host or cells: human platelets (semipurified acid extract)
T1 sequence (P14555 21-144): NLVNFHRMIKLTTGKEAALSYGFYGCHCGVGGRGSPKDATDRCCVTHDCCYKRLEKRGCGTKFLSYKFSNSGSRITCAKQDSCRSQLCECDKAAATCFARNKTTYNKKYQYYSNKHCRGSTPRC

[3] = molecular target: T2, human synovial fluid PLA2 (Homo sapiens, UniProt P14555); assay: In vitro isolated phospholipase A2 assay, human synovial fluid PLA2; assay type: biochemical; details: 10 μM; human synovial fluid; negative values denote potentiation; read-out: % Inhibition at 10 μM HSF
T2 construct: Purified human synovial fluid; from tissue; host or cells: human synovial fluid
T2 sequence (P14555 21-144): T1 sequence (P14555 21-144)
Method: The compounds of the invention are tested in an in vitro isolated phospholipase A2 assay to determine the ability of the test compounds to inhibit the release of arachidonic acid from an arachidonic acid-containing substrate by the action of phospholipase A2 enzyme from human and non-human sources.
as §1
Into a 15 mL polypropylene tube are added the following:
*pre-incubate at room temperature 30 min prior to substrate addition.
^5 Stock 10 mM prepared in dimethyl sulfoxide. Make 1:2 dilution with
dimethyl sulfoxide and add 1 μ L to 100 μL assay tube.
^6 Two human PLA2 enzymes are used:
b) Purified human synovial fluid.
Incubate the 100 μL reaction mixture for 10 minutes at 37° C. in a shaking water bath. The reaction is terminated by the addition of 2 mL tetrahydrofuran, followed by vortexing. NH2 columns (100 μg/mL--Analytichem International) are conditioned with 0.5 mL tetrahydrofuran followed by 0.5 mL tetrahydrofuran/water (2 mL:0.1 mL, v/v).
The sample is loaded onto the columns and slowly drawn through them. The hydrolyzed arachidonic acid retained in the columns is eluted therefrom with 1 mL tetrahydrofuran/glacial acetic acid (2%). The arachidonic acid is transferred to scintillation vials and quantitated by β-counting analysis. A "total counts" sample is prepared by pipetting 25 μL ^3 H-arachidonate E. coli directly into a scintillation vial to which is added 1 mL tetrahydrofuran. 10 mL aquasol (scintillation cocktail) is added to all samples. [formula]

[4] = test system: paw edema induced by exogenous PLA2 (snake, A. piscivorus piscivorus); assay: In vivo PLA2 murine paw edema assay; set-up: species or system mouse (male CD-1)
Method: The ability of the compounds of the invention to inhibit paw edema induced by the exogenous administration of PLA2 is measured in the in vivo PLA2 murine paw edema assay.
as §2
Non-fasted, male CD-1 mice (8 weeks old; 31-36 grams) are placed in plastic boxes in groups of six. The right hind paw volume is measured using mercury plethysmography (zero time). […] A solution of purified PLA2, from the diamond back cotton mouth snake (A. piscivorus piscivorus) is prepared in saline at a concentration of 6 μg/ml. Fifty (50) μl (0.3 μg) of this PLA2 solution is injected subcutaneously into the right hind paw with a plastic 1 ml plastic syringe (27 gauge, 1" needle). Paw volume of the injected paw is measured again at 10 minutes, 30 minutes and 60 minutes after PLA2 injection. Animals are euthanized with CO2 at the completion of the study.
The paw edema is calculated by subtracting the zero time volume from the volume recorded at each time period. Mean paw edema for each treatment group is then calculated and expressed as (μl±S.E.). Drug effects are expressed as a percent change from control (vehicle) values. Statistical significance is determined by a one-way analysis of variance with LSD comparison to control (p<0.05). ED50 's are determined using repression analysis.

`CC(C)Cc1ccc(C(C)C(=O)O)cc1` (stereo not shown) [Ibuprofen, reference compound] was tested, and the “ED50 LTC4” value (LTC4) was “Not Active”.

`O=C(O)Cc1cc(OCc2ccc3ccc(Cl)cc3n2)ccc1Nc1c(Cl)cccc1Cl` [Example 6, 5[(7-Chloro-2-quinolinyl)methoxy]-2-[(2,6-dichlorophenyl)amino]benzene acetic acid] showed an inhibition at 0.5 µM [1] of 80%, an inhibition at 0.5 µM [2] of 26% and an inhibition at 10 µM (human platelet PLA2) of -8.6%. For the same compound, the inhibition at 10 µM [3] was 38.8%, the “% Change in Edema 3 min” value ([4]; 1 mg/kg i.p.) was -4% and the “% Change in Edema 10 min” value ([4]; 1 mg/kg i.p.) was -18%. For the same compound, the “% Change in Edema 10 min” value ([4]; 10 mg/kg i.p.) was -24%, the “% Change in Edema 30 min” value ([4]; 10 mg/kg i.p., 30 min) was -24% and the “% Change in Edema 60 min” value ([4]; 10 mg/kg i.p.) was -32%. For the same compound, the “% Change in Edema 10 min” value ([4]; 50 mg/kg p.o.) was -18%, the “% Change in Edema 30 min” value ([4]; 50 mg/kg p.o., 30 min) was -39% and the “% Change in Edema 60 min” value ([4]; 50 mg/kg p.o.) was -10%. For the same compound, the change in vivo at 1 mg/kg ([4]; Mus musculus, ip, 0.5 h, 1 mg/kg i.p., 30 min) was -12%.

For `O=C(O)Cc1cc(OCCCCOc2ccccc2)ccc1Nc1c(Cl)cccc1Cl` [Example 9, 2-[(2,6-Dichlorophenyl)amino]-5-[(4-phenoxy)butoxy]benzene acetic acid], the inhibition at 0.5 µM [1] was 16%, the inhibition at 10 µM ([1]; at 10 μM) was 100% and the inhibition at 0.5 µM [2] was 38%. It also gave an inhibition at 10 µM ([2]; at 10 μM) of 100%, an inhibition at 10 µM (human platelet PLA2) of 2.2% and an inhibition at 10 µM [3] of 15.7%. For the same compound, the “% Change in Edema 3 min” value ([4]; 10 mg/kg i.p.) was -41%, the “% Change in Edema 10 min” value ([4]; 10 mg/kg i.p.) was -54% and the “% Change in Edema 30 min” value ([4]; 10 mg/kg i.p., 30 min) was -32%. The “% Change in Edema 3 min” value ([4]; 50 mg/kg p.o.) was “+37%”, the “% Change in Edema 10 min” value ([4]; 50 mg/kg p.o.) was -12% and the “% Change in Edema 30 min” value ([4]; 50 mg/kg p.o., 30 min) was -4%.

For `COc1ccc2c(c1)c(CC(=O)O)c(C)n2C(=O)c1ccc(Cl)cc1` [Indomethacin, reference compound], the “ED50 LTC4” value (LTC4) was “Not Active”.

In the case of `O=C(O)Cc1cc(OCc2ccc3ccccc3c2)ccc1Nc1c(Cl)cccc1Cl` [Example 8, acetic acid], the inhibition at 0.5 µM [1] is reported as 67%, the inhibition at 0.5 µM [2] is reported as 30% and the inhibition at 10 µM (human platelet PLA2) is reported as -3.9%. For the same compound, the inhibition at 10 µM [3] was 42.5%, the “% Change in Edema 10 min” value ([4]; 10 mg/kg i.p.) was -28% and the “% Change in Edema 30 min” value ([4]; 10 mg/kg i.p., 30 min) was -43%. The “% Change in Edema 60 min” value ([4]; 10 mg/kg i.p.) was -47%, the “% Change in Edema 10 min” value ([4]; 50 mg/kg p.o.) was “+35%” and the “% Change in Edema 30 min” value ([4]; 50 mg/kg p.o., 30 min) was -37%. For the same compound, the “% Change in Edema 60 min” value ([4]; 50 mg/kg p.o.) was -24%.

— patent US5159085A, “2-anilino phenylacetic acid derivatives as inhibitors of PLA2 and lipoxygenase” (American Home Products Corporation, priority 1991, dated 1992)
